Reference: patent US20090312438A1, “Compositions and Methods for Attenuating the Formation of A2E in the Retinal Pigment Epithelium” (priority 2008, published 2009)

What was measured:
[1] = female, Japanese quail (Coturnix japonica), in vivo, 16 weeks
Experimental: Tissues were homogenized and extracted three times with tetrahydrofuran containing 0.1% butylated hydroxytoluene by sonication at 5° C. to 10° C. for 30 minutes each time. The combined organic extracts were evaporated to dryness under vacuum at room temperature. The dried residue was redissolved in one ml of HPLC mobile phase and centrifuged at approximately 2000 g for 10 minutes to remove the minor amounts of insoluble solid particles prior to analysis. The majority of carotenoids in bird retinas are esterified (32), so after the initial extraction, the dried carotenoid residue was redissolved in hexane and subjected to saponification in 1.8% (w/v) methanolic potassium hydroxide (KOH) for two hours at room temperature. After saponification, the samples were washed with water until the samples achieved neutral pH. The vials were centrifuged at approximately 2000 g to remove the minor amounts of insoluble solid particles. The solution was evaporated to dryness on a rotary evaporator under reduced pressure at room temperature and reconstituted in the appropriate HPLC solvents.
HPLC analysis was performed on a Thermo Separations (San Jose, Calif.) HPLC system with binary gradient pumps, a refrigerated autosampler, a UV6000 photodiode-array detector (PDA), and an MSQ single quadrupole mass spectrometer. […]

[2] = system: A2E formation in the RPE; test: Xanthophyll supplementation in Japanese quail: A2E in RPE/choroid by HPLC-MS; assay type: in vivo, Japanese quail (Coturnix japonica); conditions: for Rise of A2E levels from baseline levels: 16-week supplementation, P=0.1, unsupplemented control rose more than six-fold; for A2E oxidation products in mass spectra versus control group: A2E extracted from RPE, FIG. 5; for A2E levels in the RPE, control group relative to supplemented groups: FIG. 4, 16 weeks, N=4, P<0.001; for Inhibition of A2E formation relative to birds fed a control diet low in carotenoids: high dose supplementation
Experimental: A2E and its isomers were extracted and isolated from RPE/choroid using a previously described method (8). RPE samples were homogenized in 1:1 CHCl3/MeOH (2 ml) and 0.01 M phosphate-buffered saline (PBS) (1 ml). The homogenizer was washed with 1:1 CHCl3/MeOH (2 ml), 0.01 M PBS (1 ml), and then CHCl3 (2 ml) and CH2Cl2 (2 ml) were added to remove any remaining material. All solutions were combined, and the organic layer was extracted from the aqueous layer. The combined organic extracts were evaporated to dryness under vacuum at room temperature. The residue was dissolved in MeOH for HPLC. The vials were centrifuged at approximately 2000 g to remove the minor amounts of insoluble solid particles prior to analysis.
HPLC analysis was performed on a Thermo Separations (San Jose, Calif.) HPLC system with binary gradient pumps, a refrigerated autosampler, a UV6000 photodiode-array detector (PDA), and an MSQ single quadrupole mass spectrometer. Peak identities were confirmed by PDA and mass spectra and by co-elution with authentic standards as necessary. Calibration was by external standardization curves with authentic standards. […] Typical reproducibility with external standardization in our laboratory is +5%.
A2E HPLC analysis: The dried A2E samples were redissolved in 100 μl of MeOH. A gradient of 84-100% acetonitrile (A) with 0.05% trifluoroacetic acid in H2O (B) over 35 minutes was used to separate A2E at a flow rate of 1.0 ml min^−1 on a reverse-phase C18 column (4.6×250 mm, Phenomenex, Atlanta, Ga.). The column was maintained at room temperature, and the HPLC PDA detector was operated at 440 nm.
MS analysis was performed using a Thermo Separations (San Jose, Calif.) MSQ single quadrupole mass spectrometer, equipped with an electron spray ionization (ESI) source and an atmospheric pressure chemical ionization (APCI) source. A2E and carotenoids were ionized in positive ion ESI and APCI modes, respectively. To avoid overloading of eluted solvent molecules in the mass spectrometer and to optimize ionization conditions, 50% of the eluate was directed to waste with the help of a diverter valve after the PDA detector. The delay time from PDA to MS was 0.13 minutes. […] Selected ion monitoring (SIM) was performed using dwell time of 200 ms for each channel. In SIM mode, the m/z channels 592±3, 608±1.5, 624±1.5, and 640±1.5 were used for A2E and its oxidative products. Typical detection conditions for A2E were: RF lens bias voltage 0.1V, cone voltage 80V and heater temperature 550° C. The ion source and tuning lens parameters were optimized automatically by infusing A2E samples via the injector. For carotenoids, the m/z channels 551±0.7 and 569±0.7 were used for lutein, and 569±0.8 for zeaxanthin. Typical detection conditions were: corona discharge current 5 μA, cone voltage 80V, and probe temperature 500° C.
Adult Japanese quail (Coturnix japonica) were procured from B&D farms (Harrah, Okla.), and all experiments were reviewed and approved by the University of Utah's Institutional Animal Care and Use Committee. The birds were kept under ambient room light on a 12-hour light-dark cycle, and they were divided into three groups of four birds: lutein supplemented, zeaxanthin supplemented, and unsupplemented. All birds were fed daily with a standard turkey diet (˜20 g/day) (Purina Mills, St. Louis, Mo.) that was low in carotenoids (1.10 ng/g). The supplemented birds were gavaged daily with 0.5 ml of a microbial extract rich in lutein or zeaxanthin for 16 weeks (0.2 mg of carotenoid per bird per day). Lutein was prepared from the freshwater alga Chlorella protothecoides CS 41 (Microalgae Supply Service, CSIRO, Hobart Australia) under conditions described earlier (36). Zeaxanthin was obtained from the non-pathogenic bacteria Flavobacterium multivorum ATCC 55238 grown on liquid growth medium as detailed earlier (37). […]

[3] = extensive use in humans as dietary supplements; cited from earlier work

Structure (SMILES)	Increase of total lutein and zeaxanthin levels (retina) relative to baseline [1]	Rise of total retinal carotenoid levels relative to baseline [1]	Rise of A2E levels from baseline levels [2]	A2E oxidation products in mass spectra versus control group [2]	A2E levels in the RPE, control group relative to supplemented groups [2]	Inhibition of A2E formation relative to birds fed a control diet low in carotenoids [2]	Toxicity in humans as dietary supplements [3]
CC1=C[C@H](O)CC(C)(C)[C@H]1/C=C/C(C)=C/C=C/C(C)=C/C=C/C=C(C)/C=C/C=C(C)/C=C/C1=C(C)C[C@@H](O)CC1(C)C [Lutein, (3R, 3′R, 6′R)-lutein]	2.8 fold	1.6 fold	barely any rise from baseline levels	control group had higher levels of oxidation products in comparison	significantly higher for the control group	profound inhibition of A2E formation	no toxicity has ever been reported
CC1=C(/C=C/C(C)=C/C=C/C(C)=C/C=C/C=C(C)/C=C/C=C(C)/C=C/C2=C(C)C[C@@H](O)CC2(C)C)C(C)(C)C[C@H](O)C1 [Zeaxanthin, (3R, 3′R)-zeaxanthin]	–	–	barely any rise from baseline levels	control group had higher levels of oxidation products in comparison	significantly higher for the control group	profound inhibition of A2E formation	no toxicity has ever been reported
